Data taken from the NIST ThermoML archive (doi:10.1021/acs.jced.8b00492).
± gives the expanded uncertainty stated by the source.

Test: mn = molality of the nth substance listed, in mol/kg
Settings: for surface tension liquid-gas: Ring tensiometer; for viscosity / speed of sound / mass density: 100 kPa, Liquid; for viscosity: Capillary tube (Ostwald / Ubbelohde) method; for speed of sound: Frequency=3 MHz, Single path-length method; for mass density: Vibrating tube method

C1N2CN3CN1CN(C2)C3 [1,3,5,7-tetraazaadamantane] + O
Settings | mass density [kg/m3] | speed of sound [m/s] | surface tension liquid-gas [mN/m] | viscosity [mPa·s]
293.15 K, m1 = 0.207 | 1004.3 ± 2 | 1493.6 ± 0.7 | 69.2 ± 0.9 | 1.075 ± 0.05
293.15 K, m1 = 0.425 | 1010.5 ± 2 | 1504.9 ± 0.7 | 67.4 ± 0.9 | 1.168 ± 0.05
293.15 K, m1 = 0.654 | 1016.6 ± 2 | 1516.5 ± 0.7 | 66.2 ± 0.9 | 1.287 ± 0.051
293.15 K, m1 = 0.897 | 1022.9 ± 2 | 1528.8 ± 0.7 | 65.4 ± 0.9 | 1.419 ± 0.051
293.15 K, m1 = 1.164 | 1029.5 ± 2 | 1541.8 ± 0.7 | 64.8 ± 0.9 | 1.579 ± 0.051
293.15 K, m1 = 1.449 | 1036.1 ± 2 | 1555.9 ± 0.7 | 64.4 ± 0.9 | 1.711 ± 0.051
293.15 K, m1 = 1.748 | 1042.9 ± 2 | 1569.3 ± 0.7 | 64 ± 0.9 | 1.911 ± 0.051
293.15 K, m1 = 2.068 | 1049.6 ± 2 | 1583.3 ± 0.7 | 63.7 ± 0.9 | 2.142 ± 0.052
293.15 K, m1 = 2.412 | 1056.3 ± 2 | 1597.1 ± 0.7 | 63.5 ± 0.9 | 2.477 ± 0.052
293.15 K, m1 = 2.779 | 1063.3 ± 2 | 1611.8 ± 0.8 | 63.3 ± 0.9 | 2.777 ± 0.052
293.15 K, m1 = 3.181 | 1070.4 ± 2 | 1626.9 ± 0.8 | 63.2 ± 0.9 | 3.217 ± 0.053
293.15 K, m1 = 3.617 | 1077.6 ± 2 | 1642.5 ± 0.8 | 63.1 ± 0.9 | 3.698 ± 0.054
293.15 K, m1 = 4.088 | 1084.9 ± 2 | 1658.4 ± 0.8 | 63 ± 0.9 | 4.214 ± 0.056
293.15 K, m1 = 4.609 | 1092.3 ± 2 | 1674.7 ± 0.8 | 62.9 ± 0.9 | 4.991 ± 0.058
293.15 K, m1 = 5.155 | 1099.8 ± 2 | 1691.4 ± 0.8 | 62.9 ± 0.9 | 5.869 ± 0.06
303.15 K, m1 = 0.207 | 1001.6 ± 2 | 1519 ± 0.7 | 67.5 ± 0.9 | 0.88 ± 0.05
303.15 K, m1 = 0.425 | 1007.7 ± 2 | 1529.4 ± 0.7 | 66.1 ± 0.9 | 0.942 ± 0.05
303.15 K, m1 = 0.654 | 1013.8 ± 2 | 1539.3 ± 0.7 | 65 ± 0.9 | 1.025 ± 0.05
303.15 K, m1 = 0.897 | 1019.9 ± 2 | 1550 ± 0.7 | 64.2 ± 0.9 | 1.085 ± 0.05
303.15 K, m1 = 1.164 | 1026.4 ± 2 | 1561.1 ± 0.7 | 63.5 ± 0.9 | 1.193 ± 0.05
303.15 K, m1 = 1.449 | 1032.9 ± 2 | 1573.6 ± 0.7 | 62.9 ± 0.8 | 1.309 ± 0.051
303.15 K, m1 = 1.748 | 1039.4 ± 2 | 1585 ± 0.7 | 62.5 ± 0.8 | 1.472 ± 0.051
303.15 K, m1 = 2.068 | 1046 ± 2 | 1597.4 ± 0.7 | 62.2 ± 0.8 | 1.631 ± 0.051
303.15 K, m1 = 2.412 | 1052.9 ± 2 | 1609.3 ± 0.7 | 61.9 ± 0.8 | 1.875 ± 0.051
303.15 K, m1 = 2.779 | 1059.7 ± 2 | 1622.1 ± 0.7 | 61.7 ± 0.8 | 2.094 ± 0.051
303.15 K, m1 = 3.181 | 1066.6 ± 2 | 1635.2 ± 0.8 | 61.5 ± 0.8 | 2.402 ± 0.052
303.15 K, m1 = 3.617 | 1073.6 ± 2 | 1648.7 ± 0.8 | 61.4 ± 0.8 | 2.743 ± 0.052
303.15 K, m1 = 4.088 | 1080.8 ± 2 | 1662.4 ± 0.8 | 61.3 ± 0.8 | 3.092 ± 0.053
303.15 K, m1 = 4.609 | 1088 ± 2 | 1676.5 ± 0.8 | 61.2 ± 0.8 | 3.635 ± 0.054
303.15 K, m1 = 5.155 | 1095 ± 2 | 1690.9 ± 0.8 | 61.2 ± 0.8 | 4.21 ± 0.056
313.15 K, m1 = 0.207 | 998 ± 2 | 1538 ± 0.7 | 66.3 ± 0.9 | 0.718 ± 0.05
313.15 K, m1 = 0.425 | 1004.1 ± 2 | 1546.6 ± 0.7 | 64.7 ± 0.9 | 0.761 ± 0.05
313.15 K, m1 = 0.654 | 1010.1 ± 2 | 1555.4 ± 0.7 | 63.5 ± 0.9 | 0.806 ± 0.05
313.15 K, m1 = 0.897 | 1016.1 ± 2 | 1565 ± 0.7 | 62.8 ± 0.8 | 0.87 ± 0.05
313.15 K, m1 = 1.164 | 1022.5 ± 2 | 1574.7 ± 0.7 | 62.1 ± 0.8 | 0.936 ± 0.05
313.15 K, m1 = 1.449 | 1028.9 ± 2 | 1585.8 ± 0.7 | 61.5 ± 0.8 | 1.017 ± 0.05
313.15 K, m1 = 1.748 | 1035.4 ± 2 | 1595.6 ± 0.7 | 61.1 ± 0.8 | 1.158 ± 0.05
313.15 K, m1 = 2.068 | 1041.8 ± 2 | 1606.6 ± 0.7 | 60.7 ± 0.8 | 1.26 ± 0.051
313.15 K, m1 = 2.412 | 1048.3 ± 2 | 1616 ± 0.7 | 60.5 ± 0.8 | 1.441 ± 0.051
313.15 K, m1 = 2.779 | 1055 ± 2 | 1627.1 ± 0.7 | 60.3 ± 0.8 | 1.597 ± 0.051
313.15 K, m1 = 3.181 | 1061.8 ± 2 | 1638.5 ± 0.8 | 60.2 ± 0.8 | 1.82 ± 0.051
313.15 K, m1 = 3.617 | 1068.7 ± 2 | 1650.1 ± 0.8 | 60.1 ± 0.8 | 2.063 ± 0.051
313.15 K, m1 = 4.088 | 1075.6 ± 2 | 1661.9 ± 0.8 | 60 ± 0.8 | 2.296 ± 0.052
313.15 K, m1 = 4.609 | 1082.7 ± 2 | 1674 ± 0.8 | 59.9 ± 0.8 | 2.687 ± 0.052
313.15 K, m1 = 5.155 | 1089.8 ± 2 | 1687.2 ± 0.8 | 59.9 ± 0.8 | 3.084 ± 0.053
323.15 K, m1 = 0.207 | 993.9 ± 2 | 1549.2 ± 0.7 | 65.1 ± 0.9 | 0.596 ± 0.05
323.15 K, m1 = 0.425 | 999.7 ± 2 | 1557.4 ± 0.7 | 63.4 ± 0.8 | 0.635 ± 0.05
323.15 K, m1 = 0.654 | 1005.6 ± 2 | 1566.1 ± 0.7 | 62.1 ± 0.8 | 0.671 ± 0.05
323.15 K, m1 = 0.897 | 1011 ± 2 | 1574.4 ± 0.7 | 61.2 ± 0.8 | 0.716 ± 0.05
323.15 K, m1 = 1.164 | 1018 ± 2 | 1583 ± 0.7 | 60.5 ± 0.8 | 0.755 ± 0.05
323.15 K, m1 = 1.449 | 1024.3 ± 2 | 1593.1 ± 0.7 | 60.1 ± 0.8 | 0.819 ± 0.05
323.15 K, m1 = 1.748 | 1030.7 ± 2 | 1601.3 ± 0.7 | 59.7 ± 0.8 | 0.908 ± 0.05
323.15 K, m1 = 2.068 | 1037.1 ± 2 | 1611.1 ± 0.7 | 59.5 ± 0.8 | 0.985 ± 0.05
323.15 K, m1 = 2.412 | 1043.5 ± 2 | 1620 ± 0.7 | 59.2 ± 0.8 | 1.131 ± 0.05
323.15 K, m1 = 2.779 | 1050.1 ± 2 | 1629.6 ± 0.7 | 59 ± 0.8 | 1.233 ± 0.051
323.15 K, m1 = 3.181 | 1056.8 ± 2 | 1639.4 ± 0.8 | 58.9 ± 0.8 | 1.387 ± 0.051
323.15 K, m1 = 3.617 | 1063.5 ± 2 | 1649.3 ± 0.8 | 58.8 ± 0.8 | 1.569 ± 0.051
323.15 K, m1 = 4.088 | 1070.4 ± 2 | 1659.4 ± 0.8 | 58.7 ± 0.8 | 1.77 ± 0.051
323.15 K, m1 = 4.609 | 1077.3 ± 2 | 1669.7 ± 0.8 | 58.6 ± 0.8 | 2.027 ± 0.051
323.15 K, m1 = 5.155 | 1084.2 ± 2 | 1680.2 ± 0.8 | 58.6 ± 0.8 | 2.327 ± 0.052
